According to publication PMC11876601 (Molecular Systems Biology, 2025):
Where two headings read alike, the source gives them in different places.

What was measured:
PLK4 = conditions: cited from earlier work
RET = conditions: cited from earlier work
Q6ZSR9 = conditions: cited from earlier work
PAK4 = conditions: cited from earlier work
AURKB = conditions: cited from earlier work
PKN1 = conditions: cited from earlier work
LATS1 = conditions: cited from earlier work
MiaPaCa-2 = assay: cells; design: ATPlite luminescence viability of PDAC cell lines, 11-dose single-agent curves, 4-parameter fit; conditions: Homo sapiens, MIA PaCa-2, 72 h, read-out: EC50 [nM]
Method in brief: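 cells (1000 to 5000 per well) seeded 24 h before drug addition in a combination screen at 0.2% final DMSO. Controls were drug-free wells (negative) and 5 µM staurosporine (positive).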

[1] = 4 cell line mix lysate, Kinobeads y, ref Klaeger et al. (2017)
[2] = PLK4, 5 cell line mix lysate, Kinobeads ε, ref Reinecke et al. (2023)
[3] = 5 cell line mix lysate, Kinobeads ε, ref Reinecke et al. (2023), read-out: KDapp
[4] = 5 cell line mix lysate, Kinobeads ε, ref Reinecke et al. (2023)
[5] = Q6ZSR9, 5 cell line mix lysate, Kinobeads ε, ref Reinecke et al. (2023)
[6] = PAK4, 5 cell line mix lysate, Kinobeads ε, ref Reinecke et al. (2023)
[7] = PKN1, 5 cell line mix lysate, Kinobeads ε, ref Reinecke et al. (2023)
[8] = LATS1, 5 cell line mix lysate, Kinobeads ε, ref Reinecke et al. (2023)

In the case of `C[C@]12O[C@H](C[C@]1(O)CO)n1c3ccccc3c3c4c(c5c6ccccc6n2c5c31)CNC4=O` [Lestaurtinib], the EC50 (PLK4; PLK4, 4 cell line mix lysate, Kinobeads y, ref Klaeger et al. (2017)) is given as […], the EC50 (RET; [1]) is given as […] and the EC50 (Q6ZSR9; Q6ZSR9, 4 cell line mix lysate, Kinobeads y, ref Klaeger et al. (2017)) is given as 105 nM. For the same compound, the EC50 (PAK4; PAK4, 4 cell line mix lysate, Kinobeads y, ref Klaeger et al. (2017)) was […], the EC50 (AURKB; [1]) was […] and the EC50 (PKN1; PKN1, 4 cell line mix lysate, Kinobeads y, ref Klaeger et al. (2017)) was […]. For the same compound, the EC50 (LATS1; LATS1, 4 cell line mix lysate, Kinobeads y, ref Klaeger et al. (2017)) was […] and the EC50 (MiaPaCa-2) was 275 nM.
In the case of `COc1cc(N2CCC(N3CCN(C)CC3)CC2)ccc1Nc1ncc(Cl)c(Nc2ccccc2P(C)(C)=O)n1` [Brigatinib], the EC50 (PLK4; [2]) is given as 95.2 nM, the pKDapp (PLK4; [2]) is given as 7.31 and the Kd (PLK4; PLK4, 5 cell line mix lysate, Kinobeads ε, ref Reinecke et al. (2023), read-out: KDapp) is given as 48.5 nM. The Kd (RET; [3]) was 125 nM, the EC50 (RET; [4]) was 283 nM and the pKDapp (RET; [4]) was 6.90. The EC50 (Q6ZSR9; [5]) was 296 nM, the pKDapp (Q6ZSR9; [5]) was 6.65 and the Kd (Q6ZSR9; Q6ZSR9, 5 cell line mix lysate, Kinobeads ε, ref Reinecke et al. (2023), read-out: KDapp) was 225 nM. The EC50 (PAK4; [6]) was 1190 nM, the pKDapp (PAK4; [6]) was 6.14 and the Kd (PAK4; PAK4, 5 cell line mix lysate, Kinobeads ε, ref Reinecke et al. (2023), read-out: KDapp) was 718 nM. The Kd (AURKB; [3]) was 1080 nM, the EC50 (AURKB; [4]) was 1850 nM and the pKDapp (AURKB; [4]) was 5.97. The EC50 (PKN1; [7]) was 2270 nM, the pKDapp (PKN1; [7]) was 5.70 and the Kd (PKN1; PKN1, 5 cell line mix lysate, Kinobeads ε, ref Reinecke et al. (2023), read-out: KDapp) was 1990 nM. The EC50 (LATS1; [8]) was 3550 nM, the pKDapp (LATS1; [8]) was 5.55 and the Kd (LATS1; LATS1, 5 cell line mix lysate, Kinobeads ε, ref Reinecke et al. (2023), read-out: KDapp) was 2790 nM. The EC50 (MiaPaCa-2) was 177 nM.
